Reference: patent US8530486B2, “Quinazolines and related heterocyclic compounds, and their therapeutic use” (Vereniging Voor Christelijk Hoger Onderwijs, …, priority 2008, dated 2013)

Target: T1, human H4 receptor (Homo sapiens, UniProt Q9H3N8)
T1 construct: expressed in transfected cells; host or cells: HEK 293T cells, transient transfection with polyethyleneimine
Test: [3H]Histamine binding assay (radioligand displacement at the human H4 receptor)
Settings: [3H]histamine displacement, membranes of HEK 293T cells transfected with human H4R; read-out: Activity Class* (Ki in H4 binding assay)

T1 sequence (Q9H3N8 whole entry): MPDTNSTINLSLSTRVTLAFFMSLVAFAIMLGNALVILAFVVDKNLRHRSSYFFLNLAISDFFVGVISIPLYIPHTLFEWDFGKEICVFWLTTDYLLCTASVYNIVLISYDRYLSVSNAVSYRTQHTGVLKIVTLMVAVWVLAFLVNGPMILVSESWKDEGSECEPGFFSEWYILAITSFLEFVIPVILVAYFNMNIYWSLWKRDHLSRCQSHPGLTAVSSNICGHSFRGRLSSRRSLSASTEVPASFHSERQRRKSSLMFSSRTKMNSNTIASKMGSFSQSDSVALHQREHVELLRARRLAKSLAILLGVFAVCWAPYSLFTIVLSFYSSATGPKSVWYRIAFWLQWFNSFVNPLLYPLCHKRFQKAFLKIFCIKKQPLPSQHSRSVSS

SMILES	Ki [µM]
CN1CCN(c2nc(NCCS(=O)(=O)Nc3ccccc3)c3c(Cl)cc(Cl)cc3n2)CC1 [Example 17, 2-(5,7-dichloro-2-(4-methylpiperazin-1-yl)quinazoline-4-amino)-N-phenylethanesulfonamide]	< 1
CN1CCN(c2nc(NCCS(=O)(=O)Nc3ccc(I)cc3)c3cc(Cl)ccc3n2)CC1 [Example 8, 2-(6-chloro-2-(4-methylpiperazin-1-yl)quinazoline-4-amino)-N-(4-iodophenyl)ethanesulfonamide]	< 1
CN1CCN(c2nc(NCCS(=O)(=O)Nc3ccccc3)c3ccc(Cl)c(Cl)c3n2)CC1 [Example 16, 2-(7,8-dichloro-2-(4-methylpiperazin-1-yl)quinazoline-4-amino)-N-phenylethanesulfonamide]	< 1
CN1CCN(c2nc(NCCS(=O)(=O)Nc3ccccc3)c3cc(Cl)c(Cl)cc3n2)CC1 [Example 12, 2-(6,7-dichloro-2-(4-methylpiperazin-1-yl)quinazoline-4-amino)-N-phenylethanesulfonamide]	< 1
CN1CCN(c2nc(NCCS(=O)(=O)Nc3ccccc3)c3cc(Cl)cc(Cl)c3n2)CC1 [Example 14]	< 1
